{
  "source": "patent US5514662A",
  "about": "“Use of amphotericin B derivatives as protease inhibitors” (priority 1991, dated 1996)",
  "key": {"trypsin": {"target": "T1, trypsin (Bos taurus, UniProt P00760)", "T1 sequence (P00760 24-246)": "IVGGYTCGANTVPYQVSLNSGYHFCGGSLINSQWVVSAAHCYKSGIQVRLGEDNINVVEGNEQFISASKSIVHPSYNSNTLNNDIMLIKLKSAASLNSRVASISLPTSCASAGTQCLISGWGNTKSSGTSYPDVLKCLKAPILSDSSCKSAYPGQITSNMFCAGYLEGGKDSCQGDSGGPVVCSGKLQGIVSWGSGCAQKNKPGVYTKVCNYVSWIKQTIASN", "test": "Inhibition of trypsin", "assay_type": "biochemical"}, "chymotrypsin": {"test_system": "chymotrypsin", "test": "Activity of DABF-AmB on various proteases: chymotrypsin", "assay_type": "biochemical", "settings": "1 μM", "protocol": "(§1) DABF-AmB was tested, at a concentration of 1 μM, on various proteases (papain, chymotrypsin, kallicrein, leucocyte elastase, cathopsin D and recombinant protease p10) under conditions and in the presence of substrates appropriate for each of the proteases tested."}, "cathopsin D": {"test_system": "cathopsin D", "test": "Activity of DABF-AmB on various proteases: cathopsin D", "assay_type": "biochemical", "settings": "1 μM", "protocol": "as §1"}, "protease p10": {"target": "protease p10 (Human immunodeficiency virus type 1 (BRU ISOLATE), UniProt P03367)", "test": "Activity on recombinant protease p10", "assay_type": "biochemical", "settings": "1 μM for DABF-AmB", "protocol": "as §1"}, "LAV/BRU strain of HIV-1": {"test_system": "LAV/BRU strain of HIV-1", "test": "Reverse transcriptase activity in supernatants of HIV-1 infected Jurkat and CEM cells", "assay_type": "cell-based", "protocol": "The T cells (Jurkat and CEM) used are very permissive to HIV infection. They are cultured in RPMI 1640 medium supplemented with 10% foetal calf serum, 2 mM of glutamine and a mixture of penicillin and streptomycin. The peripheral blood mononuclear cells are obtained from blood from healthy donors, isolated on a Ficoll Hypaque gradient and stimulated with 10 μg/ml of phytohaemagglutinin A (PHA), for two days, in RPMI 1640 medium supplemented, prior to the infection by HIV, with amikacin and vancomycin (10 mg/ml), polybrene (1 mg/ml) and anti-interferon gamma serum (5 U/ml). After infection, the PBMCs are cultured (10^5 per well) in flat-bottomed 96-well plates in the same RPMI 1640 medium (200 μl per well).\nInfectious preparations of the LAV/Bru strain of HIV-1 are obtained from chronically infected CEM cell (clone 13) culture supernatants filtered through a 0.45-μm filter.\nFor the infection, fresh Jurkat or CEM type cells are centrifuged and the pellet is incubated for 2 hours at 37° C. with the viral preparation (10000 cpm of reverse transcriptase activity/10^6 cells, which corresponds to a multiplicity of infection of 0.04 to 0.1). The cells are then washed and resuspended (0.5×10^6/ ml) in fresh culture medium. Reverse transcriptase activity is determined at specific times after the infection, using the acellular infected cell supernatant.\nThe reverse transcriptase activity is determined at the indicated times using the culture supernatant, according to the procedure described by REY et al., Biochem. Res. Comm. 121, 126-133 (1984).\nThe Jurkat and CEM type T cells are infected with the LAV/BRU strain of HIV-1.\nViral infection and replication are monitored by measuring the reverse transcriptase activity in the culture supernatants.\nTo measure the anti-HIV activity of DABF-AmB, infected cells are cultured in the presence of increasing doses (between 0.1 μM and 100 μM) of the product; […] kept constant during the infection by carrying out a one half dilution, every 3 days, of the growing cells in fresh medium containing the desired concentration.\nThe corresponding results are illustrated in FIGS. 3b and 3d: the reverse transcriptase activity measured on the 8th day of the viral infection is represented on the y axis and the DABF-AmB concentration on the x axis."}, "CD4": {"test_system": "CD4", "test": "Membrane expression of CD4 in HIV-1 infected Jurkat and CEM cells", "assay_type": "cell-based, human", "settings": "10 μM continuous, 8th day", "protocol": "Membrane expression of CD4 and gp120 is measured by means of the monoclonal antibodies OKT4 (0,5 μg/ml), 110-4 (2 μg/ml) respectively, which are stained using a […].\nThe fluorescence is measured by means of a FACSTAR cell counter (BECTON DICKINSON, MOUNTAIN VIEW, Calif.). The results are expressed as mean fluorescence intensity.\nThe CD4-specific monoclonal antibody (OKT4 was bought from ORTHO PHARMACEUTICAL CORPORATION (Raritan, N.J.).\nImmunofluorescence analyses are carried out on the 8th day of the infection in order to verify whether the inhibition of HIV replication by DABF-AmB results in 10 a reduced membrane expression of viral antigens."}, "AZT-resistant strains": {"test_system": "AZT-resistant strains", "test": "Infection of PBMCs by AZT-resistant HIV-1", "assay_type": "cell-based", "settings": "10 μM, RT activity after 10 days", "protocol": "PBMCs were infected under the conditions described above in the general procedures, with various HIV-1 isolates derived from patients, or identified as resistant to AZT. The anti-viral effect of DABF-AmB was determined by measuring the RT activity in the supernatants after 10 days of culture."}, "HRV14 [1]": {"test_system": "HRV14", "test": "Cytopathogenic effect of HRV14 in HeLa-Ohio cells", "assay_type": "cell-based", "protocol": "HeLa-Ohio cells cultured until they have become confluent, are infected with a suspension of HRV14 virus. The cytopathogenic effect of the virus is evaluated by staining the cells with a 0.5% solution of crystal violet and 20% of methanol; after rinsing the plates with water, the optical density is read at 550 nm.\nFor the rest of the experiment, the cells are infected with a viral suspension with a titre such that 50% of the cells are killed after 3 days on control cells not receiving any treatment. 1 hour after the infection, the test product (AmB or DABF-AmB) is added at concentrations ranging from 0.03 to 100 μM. The percentage inhibition of the cytopathogenic effect is determined as follows:\nOD (treated infected cells)-OD (infected cells)!\nOD (healthy cells)-OD (infected cells)!\nThe effect of the addition of DABF-AmB was tested at various times: preincubation of the cells with DABF-AmB before the viral infection; addition of DABF-AmB at the time of the infection; addition of DABF-AmB after the infection, during the period of viral proliferation."}, "HRV14 [2]": {"test_system": "HRV14", "test": "Direct virucidal effect on HRV14 (preincubation of virus)", "assay_type": "cell-based", "settings": "HRV14 preincubated 5 hours at 37° C.", "protocol": "When the suspension of HRV14 is preincubated at 37° C. in the presence of DABF-AmB for 5 hours, no inhibition of the cytopathogenic effect is observed compared with a control suspension incubated under the same conditions in the absence of DABF-AmB."}},
  "note": "Like-named read-outs stand apart in the source and are kept apart here.",
  "data": [
    {"molecule": "C[C@@H]1[C@H](O)[C@@H](C)/C=C/C=C/C=C/C=C/C=C/C=C/C=C/[C@H](O[C@@H]2O[C@H](C)[C@@H](O)[C@H](NCC(=O)[C@@H](O)[C@@H]3OC(c4ccccc4)OC[C@H]3O)[C@@H]2O)C[C@@H]2O[C@](O)(C[C@@H](O)C[C@@H](O)[C@H](O)CC[C@@H](O)C[C@@H](O)CC(=O)O[C@H]1C)C[C@H](O)[C@H]2C(=O)O", "note": "(stereo partly drawn) [DABF-AmB, 1-deoxy-1-amino-4,6-O-benzylidene-D-fructosyl-AmB]", "values": [
      {"measurement": "inhibition at 1 µM", "setting": "trypsin; 1 μM, FIG. 1, read-out: % inhibition of trypsin relative to a control without inhibitor", "result": "> 60", "unit": "%"},
      {"measurement": "inhibition at 100 µM", "setting": "trypsin; 10^-4 M", "result": 100, "unit": "%"},
      {"measurement": "inhibition of trypsin (in words)", "setting": "trypsin; 10^-4 M", "result": "Total inhibition"},
      {"measurement": "inhibition at 10 µM", "setting": "trypsin; 10^-5 M", "result": 95, "unit": "%"},
      {"measurement": "inhibition at 1 µM", "setting": "trypsin; 10^-6 M, read-out: % of inhibition of trypsin", "result": 50, "unit": "%"},
      {"measurement": "inhibition at 0.1 µM", "setting": "trypsin; 10^-7 M", "result": 20, "unit": "%"},
      {"measurement": "inhibition of chymotrypsin", "setting": "chymotrypsin", "result": "does not inhibit"},
      {"measurement": "inhibition of cathopsin D", "setting": "cathopsin D", "result": "does not inhibit"},
      {"measurement": "inhibition of protease p10", "setting": "protease p10", "result": "does not inhibit"},
      {"measurement": "inhibition of reverse transcriptase activity", "setting": "LAV/BRU strain of HIV-1; 10 μM added during the 2-hour inoculation stage", "result": "does not bring about any significant inhibition"},
      {"measurement": "inhibition of reverse transcriptase activity", "setting": "LAV/BRU strain of HIV-1; 10 μM added prior to infection (24 hours pretreatment)", "result": "does not bring about any significant inhibition"},
      {"measurement": "inhibition at 10 µM", "setting": "LAV/BRU strain of HIV-1; Human immunodeficiency virus 1, 192 h, Jurkat and CEM cells, 10 μM, 8th day, N=4", "result": 88, "unit": "%"},
      {"measurement": "minimal effective concentration", "setting": "LAV/BRU strain of HIV-1; Human immunodeficiency virus 1, 192 h, Jurkat and CEM cells, 8th day, read-out: concentration from which inhibition of reverse transcriptase activity is observed", "result": "≥ 5", "unit": "µM"},
      {"measurement": "inhibition of reverse transcriptase activity (in words)", "setting": "LAV/BRU strain of HIV-1; Jurkat and CEM cells, concentrations below 1 μM", "result": "No significant inhibition"},
      {"measurement": "level of the membrane antigen CD4", "setting": "CD4", "result": "increases until it reaches that for the uninfected cells"},
      {"measurement": "inhibition of infection of PBMC", "setting": "AZT-resistant strains", "result": "this inhibition is also produced in the case of AZT-resistant strains"},
      {"measurement": "concentration from which cytopathogenic effects are completely inhibited", "setting": "HRV14 [1]; added 1 hour after infection", "result": "≥ 10", "unit": "µM"},
      {"measurement": "IC50", "setting": "HRV14 [1]; added 1 hour after infection, read-out: IC50 (50% inhibition of the cytopathogenic effect)", "result": 5, "unit": "µM"},
      {"measurement": "stage of action on HRV14 by time of addition", "setting": "HRV14 [1]; addition before, at time of, or after infection", "result": "acts essentially during viral proliferation"},
      {"measurement": "inhibition of the cytopathogenic effect after preincubation of virus (direct virucidal effect)", "setting": "HRV14 [2]", "result": "no direct virucidal effect"}
    ]}
  ]
}
